Laboratory results: the supplement of paper PMC10307832

Assays:
Assay in all cases: relative viability (nuclei count vs DMSO), 5 days (fraction); higher = more cells survive
[1] = compound: COC1=CC=C(C=C1)COC2=C(C=C(C=C2)CC3=CN=C(N=C3N)N)OC [GW-2580] + Cc1nc(NC(=O)N2CCC[C@H]2C(N)=O)sc1-c1ccnc(C(C)(C)C(F)(F)F)c1 [Alpelisib] (partner 2 µM)
Outline: (§1)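 Lung cancer cell lines were seeded in 1536-well plates and dosed by pin tool the next day, with either a single drug or a fixed anchor-drug dose combined with five library-drug doses (not always all listed) spaced in √10 steps. Five days later, one step fixed the cells and stained their nuclei (final 0.05% Triton X-100, 1% formaldehyde, 1 ug/ml Hoechst), and nuclei were counted on 4× images. Relative viability is the nuclei count in treated wells divided by the count in vehicle wells, and each value is the median of duplicate plates.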

[2] = compound: Cc1cnc(Nc2ccc(OCCN3CCCC3)cc2)nc1Nc1cccc(S(=O)(=O)NC(C)(C)C)c1 [Fedratinib] + O=C(c1cc(Cc2n[nH]c(=O)c3ccccc23)ccc1F)N1CCN(C(=O)C2CC2)CC1 [Olaparib] (partner 8 µM)
Outline: as §1

[3] = compound: Cc1cnc(Nc2ccc(OCCN3CCCC3)cc2)nc1Nc1cccc(S(=O)(=O)NC(C)(C)C)c1 [Fedratinib] + C[C@]1(O)C[C@@H](c2nc(-c3ccc4ccc(-c5ccccc5)nc4c3)c3c(N)nccn32)C1 [Linsitinib] (partner 1 µM)
Outline: as §1

[4] = compound: Cc1cnc(Nc2ccc(OCCN3CCCC3)cc2)nc1Nc1cccc(S(=O)(=O)NC(C)(C)C)c1 [Fedratinib] + O=C(CCCCCCC(=O)Nc1ccccc1)NO [Vorinostat] (partner 1 µM)
Outline: as §1

[5] = compound: COC1=CC=C(C=C1)COC2=C(C=C(C=C2)CC3=CN=C(N=C3N)N)OC [GW-2580] + CS(=O)(=O)N1CCN(Cc2cc3nc(-c4cccc5[nH]ncc45)nc(N4CCOCC4)c3s2)CC1 [Pictilisib] (partner 1 µM)
Outline: as §1

[6] = compound: Cc1cnc(Nc2ccc(OCCN3CCCC3)cc2)nc1Nc1cccc(S(=O)(=O)NC(C)(C)C)c1 [Fedratinib]
Outline: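 In 1536-well plates, lung cancer cell lines rested overnight at 37 °C before five library-drug doses (not always all listed), √10 apart, were pinned onto vehicle-anchored plates. Nuclei were counted with MetaXpress from 4× Hoechst images taken after 5 days without medium change. Viability compares treated-well with vehicle-well nuclei as a median over plates, and plates needed control CV below 25% plus at least one doubling to pass.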

Work on UMC-11 yielded a relative viability ([1]; first compound 0.08 µM) of 0.959, a relative viability ([1]; first compound 0.8 µM) of 1.07 and a relative viability ([1]; first compound 2.53 µM) of 1.11. The relative viability ([1]; first compound 8 µM) was 1.21, the relative viability ([2]; first compound 0.1 µM) was 0.3 and the relative viability ([2]; first compound 0.3162 µM) was 0.33. It also gave a relative viability ([2]; first compound 1 µM) of 0.23, a relative viability ([3]; first compound 0.1 µM) of 0.995 and a relative viability ([3]; first compound 0.3162 µM) of 0.864. For the same cell line, the relative viability ([3]; first compound 1 µM) was 0.848, the relative viability ([4]; first compound 0.1 µM) was 0.377 and the relative viability ([4]; first compound 0.3162 µM) was 0.357. It also gave a relative viability ([4]; first compound 1 µM) of 0.241, a relative viability ([5]; first compound 0.08 µM) of 0.828 and a relative viability ([5]; first compound 0.8 µM) of 1.01. For the same cell line, the relative viability ([5]; first compound 2.53 µM) was 0.695, the relative viability ([5]; first compound 8 µM) was 0.823 and the relative viability ([6]; 0.1 µM) was 0.914. The relative viability ([6]; 0.3162 µM) was 0.894 and the relative viability ([6]; 1 µM) was 0.67.
